Assay results reported in US7285543B2, “Purine inhibitors of fructose-1,6-bisphosphatase” (Metabasis Therapeutics, Inc., priority 1997, dated 2007).

Assays:
[1] = target: T1, allosteric AMP binding site of hlFBPase (Homo sapiens, UniProt P09467); test: AMP site binding: displacement of 3H-AMP from hlFBPase; details: for EC50: 3H-AMP, hlFBPase, read-out: ED50 for AMP displacement; for displacement of AMP from hlFBPase (FIG. 3): result in words
T1 construct: made in house; host or cells: E. coli BL21
T1 sequence (P09467 2-338 limits assumed): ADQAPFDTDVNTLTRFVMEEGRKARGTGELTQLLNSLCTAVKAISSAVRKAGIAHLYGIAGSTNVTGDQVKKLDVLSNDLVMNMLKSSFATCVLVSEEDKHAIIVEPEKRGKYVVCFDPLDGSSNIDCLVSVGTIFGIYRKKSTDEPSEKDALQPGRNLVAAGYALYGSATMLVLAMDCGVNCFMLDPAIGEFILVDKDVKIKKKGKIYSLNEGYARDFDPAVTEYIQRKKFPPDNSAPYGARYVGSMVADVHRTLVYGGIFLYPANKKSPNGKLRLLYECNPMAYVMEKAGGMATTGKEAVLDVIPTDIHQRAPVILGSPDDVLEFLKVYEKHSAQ
Method: To determine whether compounds bind to the allosteric AMP binding site of hlFBPase, the enzyme was incubated with radiolabeled AMP in the presence of a range of test compound concentrations. The reaction mixtures consisted of […] ^3H-AMP (54 mCi/mmol) and […] test compound in 25 mM Tris-HCl, pH 7.4, 100 mM KCl and 1 mM MgCl2. 1.45 mg of homogeneous FBPase (±1 nmole) was added last. After a 1 minute incubation, AMP bound to FBPase was separated from unbound AMP by means of a centrifugal ultrafiltration unit (“Ultrafree-MC”, Millipore) used according to the instructions of the manufacturer. The radioactivity in aliquots (100 μl) of the upper compartment of the unit (the retentate, which contains enzyme and label) and the lower compartment (the filtrate, which contains unbound label) were quantified using a Beckman liquid scintillation counter. The amount of AMP bound to the enzyme was estimated by comparing the counts in the filtrate (the unbound label) to the total counts in the retentate.

[2] = target: T2, human liver FBPase (Homo sapiens, UniProt P09467); test: Inhibition of human liver FBPase (coupled spectrophotometric assay); assay type: biochemical; details: for inhibition of hlFBPase (FIG. 2): result in words
T2 construct: made in house; host or cells: E. coli BL21
T2 sequence (P09467 2-338 limits assumed): T1 sequence (P09467 2-338 limits assumed)

[3] = target: T3, mouse liver FBPase (Mus musculus, UniProt Q9QXD6); test: In vitro inhibition of mouse liver FBPase; assay type: biochemical
T3 construct: This partially purified fraction was used for enzyme assays; from tissue; host or cells: mouse liver
T3 sequence (Q9QXD6 2-338 limits assumed): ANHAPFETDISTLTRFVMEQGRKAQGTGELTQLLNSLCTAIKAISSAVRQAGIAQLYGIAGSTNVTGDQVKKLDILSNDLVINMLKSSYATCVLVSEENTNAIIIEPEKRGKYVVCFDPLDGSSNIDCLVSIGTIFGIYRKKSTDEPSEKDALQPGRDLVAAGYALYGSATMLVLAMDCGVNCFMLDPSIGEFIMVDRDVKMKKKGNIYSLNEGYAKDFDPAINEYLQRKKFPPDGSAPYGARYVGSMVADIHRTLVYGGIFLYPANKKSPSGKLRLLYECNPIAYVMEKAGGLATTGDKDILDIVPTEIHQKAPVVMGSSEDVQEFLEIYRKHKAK
Method: (§1) Mouse liver FBPase was obtained by homogenizing freshly isolated mouse liver in 100 mM Tris-HCl buffer, pH 7.4, containing 1 mM EGTA, and 10% glycerol. […] This fraction was redissolved in the homogenization buffer and desalted on a PD-10 gel filtration column (Biorad) eluted with same. This partially purified fraction was used for enzyme assays. Both rat liver and mouse liver FBPase were assayed as described for human liver FBPase.

[4] = tested on: rat hepatocytes; test: Inhibition of gluconeogenesis (glucose production from lactate/pyruvate) in rat hepatocytes; assay type: cell-based; details: from lactate/pyruvate, isolated rat hepatocytes
Method: Hepatocytes were prepared from overnight fasted Sprague-Dawley rats (250-300 g) according to the procedure of Berry and Friend (Berry, M. N., Friend, D. S., J. Cell. Biol. 1969, 43, 506-520) as modified by Groen (Groen, […]., Eur. J. Biochem. 1982, 122, 87-93). […] Incubations were carried out in a 95% oxygen, 5% carbon dioxide atmosphere in closed, 50-mL Falcon tubes submerged in a rapidly shaking water bath (37° C.). After 1 hour, an aliquot (0.25 mL) was removed, transferred to an Eppendorf tube and centrifuged. 50 μl of supernatant was then assayed for glucose content using a Sigma Glucose Oxidase kit as per the manufacturer's instructions.

[5] = target: T4, rat liver FBPase (Rattus norvegicus, UniProt P19112); test: In vitro inhibition of rat liver FBPase; assay type: biochemical
T4 construct: made in house; host or cells: E. coli BL21
T4 sequence (P19112 2-363 limits assumed): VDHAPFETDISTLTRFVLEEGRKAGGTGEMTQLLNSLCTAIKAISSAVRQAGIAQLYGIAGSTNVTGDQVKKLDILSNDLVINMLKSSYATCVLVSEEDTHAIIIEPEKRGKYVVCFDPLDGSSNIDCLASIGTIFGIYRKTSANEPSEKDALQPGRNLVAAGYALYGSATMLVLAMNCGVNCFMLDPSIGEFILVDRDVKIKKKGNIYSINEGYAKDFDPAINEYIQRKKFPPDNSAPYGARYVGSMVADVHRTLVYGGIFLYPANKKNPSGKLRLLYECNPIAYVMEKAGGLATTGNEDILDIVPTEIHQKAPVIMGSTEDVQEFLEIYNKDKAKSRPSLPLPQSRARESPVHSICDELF
Method: as §1

[6] = Estimation of the oral bioavailability of prodrugs of phosphonic acids (urinary recovery); assay type: in vivo, rat; details: rat, estimated from urinary recovery vs intravenous parent
Method: Prodrugs were dissolved in 10% ethanol/90% polyethylene glycol (mw 400) and administered by oral gavage at doses of approximately 20 or 40 mg/kg parent compound equivalents to 6-hour fasted, Sprague Dawley rats (220-240 g). The rats were subsequently placed in metabolic cages and urine was collected for 24 hours. The quantity of parent compound excreted into urine was determined by HPLC analysis. An ODS column eluted with a gradient from potassium phosphate buffer, pH 5.5 to acetonitrile was employed for these measurements. Detection was at 310-325 nm. […] Parent compounds were typically dissolved in dimethyl sulfoxide, and administered via the tail vein in animals that were briefly anesthetized with halothane.

| Compound | IC50 [2] [µM] | IC50 [3] [µM] | IC50 [5] [µM] | other results |
| --- | --- | --- | --- | --- |
| NC(=O)c1ncn([C@@H]2O[C@H](COP(=O)(O)O)[C@@H](O)[C@H]2O)c1N [ZMP, aminoimidazolecarboxamideriboside monophosphate, reference compound] | 12 |  |  | EC50 [1]: 250 µM; displacement of AMP from hlFBPase (FIG. 3) [1]: displaced AMP from hlFBPase in a dose-dependent manner |
| CSc1nc(N)c2nc(-c3ccc(P(=O)(O)O)o3)n(CC(C)C)c2n1 [Compound 11.1, 6-amino-N^9-isobutyl-2-methylthio-8-(2-(5-phosphono)-furanyl)purine] | 0.7 | > 20 |  |  |
| Nc1ncnc2c1nc(-c1ccc(P(=O)(O)O)o1)n2C1CCCC1 [Compound 2.10, N^9-cyclopentyl-8-(2-(5-phosphono)furanyl)adenine] | 2 | > 20 |  | IC50 ([4]; Hepatocyte): 24 µM |
| Nc1ncnc2c1ncn2[C@@H]1O[C@H](COP(=O)(O)O)[C@@H](O)[C@H]1O [AMP, reference compound] | 1 |  |  | inhibition of hlFBPase (FIG. 2) [2]: dose-dependent inhibition |
| CC(C)(C)Cn1c(COCP(=O)(O)O)nc2c(N)ncnc21 [Compound 5.5, N^9-neopentyl-8-(phosphonomethoxymethyl)-adenine] | 10 | > 20 | > 20 |  |
| CC(C)(CO)Cn1c(-c2ccc(P(=O)(O)O)o2)nc2c(N)ncnc21 [Compound 2.13, N^9-(1-(3-hydroxyl-2,2-dimethyl)propyl)-8-(2-(5-phosphono)-furanyl)adenine] | 4.5 | > 20 |  | IC50 ([4]; Hepatocyte): 50 µM; inhibition of hlFBPase (FIG. 2) [2]: dose-dependent inhibition |
| Nc1ncnc2c1nc(SCP(=O)(O)O)n2CCC1CCCCC1 [Compound 8.1, N^9-(2-cyclohexylethyl)-8-(phosphonomethylthio)adenine] | 23 | > 20 | > 20 |  |
| CC(C)(C)Cn1c(-c2ccc(P(=O)(OCOC(=O)C(C)(C)C)OCOC(=O)C(C)(C)C)o2)nc2c(N)ncnc21 [Compound 16.5, 6-Amino-9-neopentyl-8-(2-(5-dipivaloxymethylphosphono)furanyl)purine] |  |  |  | oral bioavailability [6]: 5.3% |
| Nc1ncnc2c1nc(-c1ccc(P(=O)(O)O)o1)n2CCC1CCCCC1 [Compound 2.2, N^9-(2-cyclohexylethyl)-8-(2-(5-phosphono)furanyl)adenine] |  | > 20 | > 20 | IC50 ([4]; Hepatocyte): 90 µM; EC50 [1]: 35 µM; displacement of AMP from hlFBPase (FIG. 3) [1]: displaced AMP from hlFBPase in a dose-dependent manner |
| CN(C)c1ncnc2c1nc(-c1ccc(P(=O)(O)O)o1)n2CCc1ccccc1 [Compound 10.1, 6-Dimethylamino-N^9-phenethyl-8-(2-(5-phosphono)furanyl)purine] | 50 | > 20 | > 20 |  |
| CC1(C)C=CCC(C)(Cn2c(-c3ccc(P(=O)(O)O)o3)nc3c(N)ncnc32)C1 (centres unmarked) [Compound 2.16, N^9-(1,5,5-trimethyl-3-cyclohexenyl)methyl-8-(2-(5-phosphono)furanyl)-adenine] | 1.4 | > 20 | > 20 | IC50 ([4]; Hepatocyte): 12 µM |
| CC(C)(CCl)Cn1c(-c2ccc(P(=O)(O)O)o2)nc2c(N)ncnc21 [Compound 2.14, N^9-(1-(3-chloro-2,2-dimethyl)propyl)-8-(2-(5-phosphono)-furanyl)adenine] | 0.9 | > 20 | > 20 | IC50 ([4]; Hepatocyte): 7.5 µM |
| CC(C)Cn1c(-c2ccc(P(=O)(O)O)o2)nc2c(N)ncnc21 [Compound 2.6, N^9-isobutyl-8-(2-(5-phosphono)furanyl)adenine] |  |  |  | IC50 [4]: 18 µM |
| Nc1ncnc2c1nc(-c1ccc(P(=O)(O)O)o1)n2Cc1ccc2ccccc2c1 [Compound 2.3, N^9-(2-naphthylmethyl)-8-(2-(5-phosphono)furanyl)adenine] | 3.3 | > 20 | > 20 |  |
| CCn1c(-c2ccc(P(=O)(O)O)o2)nc2c(N)ncnc21 [Compound 2.5, N^9-ethyl-8-(2-(5-phosphono)furanyl)adenine] |  |  |  | inhibition of hlFBPase (FIG. 2) [2]: dose-dependent inhibition |
| Nc1ncnc2c1nc(NCCP(=O)(O)O)n2[C@@H]1O[C@H](CO)[C@@H](O)[C@H]1O [Compound 4.1, 8-(2-phosphonoethylamino)-adenosine] | 100 | > 20 | > 20 |  |
| CC(C)(C)Cn1c(-c2oc(P(=O)(O)O)c(Cl)c2Cl)nc2c(N)ncnc21 [Compound 12.1, 6-amino-N^9-neopentyl-8-(2-(3,4-dichloro-5-phosphono)furanyl)purine] | 13 | > 100 |  |  |
